In US7091346B1, “Purine derivatives and processes for their preparation” (Novartis AG, priority 1995, dated 2006):
Where “and” joins values, the source holds several entries; their conditions need not be identical. Equal values may be shown once. Where a name gives a salt, the structure may show the parent alone.

Row | melting point | SMILES
1 | > 250 °C | CC(C)n1cnc2c(Nc3cccc(F)c3)nc(NCCN)nc21 [Example 91, 2-(2-Amino-ethyl-amino)-6-(3-fluoro-phenyl-amino)-9-isopropyl-9H-purine]
2 | 184 °C | CCn1cnc2c(Nc3cccc(F)c3)nc(NCCO)nc21 [Example 92, 2-(2-hydroxy-ethyl-amino)-6-(3-fluoro-phenyl-amino)-9-ethyl-9H-purine]
3 | 139 °C | CC(C)n1cnc2c(Nc3ccc(F)cc3)nc(NCCO)nc21 [Example 96, 6-(4-fluoro-phenyl-amino)-2-(2-hydroxy-ethyl-amino)-9-isopropyl-9H-purine]
4 | 194 °C | CCn1cnc2c(Nc3ccc(Cl)c(C(F)(F)F)c3)nc(NCCO)nc21 [Example 106, 6-(4-chloro-3-trifluoromethyl-phenyl-amino)-9-ethyl-2-(2-hydroxy-ethyl-amino)-9H-purine]
5 | 200 °C | CC[C@H](CO)Nc1nc(Nc2cccc(Cl)c2)c2ncn(CC)c2n1 [Example 84, 6-(3-chloro-phenyl-amino)-9-ethyl-2-[(R)-1-hydroxy-but-2-yl-amino)-9H-purine]
6 | 181 °C | COc1cccc(Nc2nc(NCCN)nc3c2ncn3C(C)C)c1 [Example 101, 2-(2-amino-ethyl-amino)-9-isopropyl-6-(3-methoxy-phenyl-amino)-9H-purine]
7 | 126 °C | CCn1cnc2c(Nc3cccc(Cl)c3)nc(N3CCCCC3)nc21 [Example 82, 6-(3-chloro-phenyl-amino)-9-ethyl-2-piperidino-9H-purine]
8 | 203 °C | CC[C@@H](CO)Nc1nc(Nc2cccc(Cl)c2)c2ncn(CC)c2n1 [Example 83, 6-(3-chloro-phenyl-amino)-9-ethyl-2-[(S)-1-hydroxy-but-2-yl-amino]-9H-purine]
9 | 148 °C | CCn1cnc2c(Nc3ccc(NC(=O)OCc4ccccc4)cc3)nc(NCCO)nc21 [Example 107, 6-(4-benzyloxycarbonylamino-phenyl-amino)-9-ethyl-2-(2-hydroxy-ethyl-amino)-9H-purine]
10 | 161 °C | CCn1cnc2c(Nc3cccc(Cl)c3)nc(NC[C@H](C)O)nc21 [Example 89, 6-(3-chloro-phenyl-amino)-9-ethyl-2-[(S)-2-hydroxy-propylamino]-9H-purine]
11 | 152 °C | CCn1cnc2c(Nc3ccc(F)cc3)nc(NCCO)nc21 [Example 99, 9-ethyl-6-(4-fluoro-phenyl-amino)-2-(2-hydroxy-ethyl-amino)-9H-purine]
12 | 143 °C | CCn1cnc2c(Nc3cccc(Cl)c3)nc(NC3CCCCC3)nc21 [Example 85, 6-(3-chloro-phenyl-amino)-2-cyclohexylamino-9-ethyl-9H-purine]
13 | > 250 °C | CCn1cnc2c(Nc3cccc(C(F)(F)F)c3)nc(NCCN)nc21 [Example 95, 2-(2-amino-ethyl-amino)-9-ethyl-6-(3-trifluoromethyl-phenyl-amino)-9H-purine]
14 | 210 °C | CCn1cnc2c(Nc3ccc(N)cc3)nc(NCCO)nc21 [Example 108, 6-(4-amino-phenyl-amino)-9-ethyl-2-(2-hydroxy-ethyl-amino)-9H-purine]
15 | 202 °C | CCn1cnc2c(Nc3cc(C(F)(F)F)cc(C(F)(F)F)c3)nc(NCCO)nc21 [Example 105, 9-ethyl-2-(2-hydroxy-ethyl-amino)-6-(3,5-di-trifluoromethyl-phenyl-amino)-9H-purine]
16 | 183 °C | CCn1cnc2c(Nc3cccc(Cl)c3)nc(N3C(C)CNCC3C)nc21 (stereo not shown) [Example 74, 6-(3-chloro-phenylamino)-2-[(2,6-dimethyl)-piperazino]-9-ethyl-9H-purine]

The remaining lines, values behind:

Row | SMILES | melting point
17 | CCn1cnc2c(Nc3cccc(Cl)c3)nc(N3CCC[C@H]3C(N)=O)nc21 [Example 64, 2-[(S)-2-carbamoyl-pyrrolidin-1-yl]-6-(3-chloro-phenyl-amino)-9-ethyl-9H-purine] | > 240 °C
18 | CC(C)n1cnc2c(Nc3cccc(Cl)c3)nc(NCCN)nc21 (as salt: ammonium) [Example 4, 2-(2-Amino-ethylamino)-6-(3-chloro-phenyl-amino)-9-isopropyl-9H-purine] | 55 to 56 °C
19 | CCn1cnc2c(Nc3cccc(Cl)c3)nc(NCCCOC)nc21 [Example 12, 2-(3-methoxy-propyl-amino)-6-(3-chloro-phenyl-amino)-9-ethyl-9H-purine] | 93 to 94 °C
20 | CCn1cnc2c(Nc3cccc(Cl)c3)nc(N3CCCC(N)C3)nc21 (stereo not shown) [Example 66, 2-(3-amino-piperidin-1-yl)-6-(3-chloro-phenyl-amino)-9-ethyl-9H-purine] | 165 °C
21 | CCn1cnc2c(Nc3cccc(Cl)c3)nc(N3CCC[C@@H]3CN)nc21 [Example 46, 2-[(R)-2-Aminomethyl-pyrrolidin-1-yl]-6-(3-chloro-phenyl-amino)-9-ethyl-9H-purine] | 126 to 129 °C
22 | CCn1cnc2c(Nc3cccc(Cl)c3)nc(N3CCC(O)CC3)nc21 [Example 72, 6-(3-chloro-phenyl-amino)-9-ethyl-2-(4-hydroxy-piperidino)-9H-purine] | 198.7 °C
23 | CCn1cnc2c(Nc3cccc(Cl)c3)nc(N3CCC[C@@H]3C(N)=O)nc21 [Example 45, 2-[(R)-(−)-2-carbamoyl-pyrrolidin-1-yl]-6-(3-chloro-phenyl-amino)-9-ethyl-9H-purine] | > 230 °C
24 | COc1cccc(Nc2nc(NCCCO)nc3c2ncn3C(C)C)c1 [Example 27, 2-(3-hydroxy-propyl-amino)-6-(3-methoxy-phenyl-amino)-9-isopropyl-9H-purine] | 128 to 129 °C
25 | COc1cccc(Nc2nc(NCCCO)nc3c2ncn3CCO)c1 [Example 28, 9-(2-hydroxy-ethyl)-2-(3-hydroxy-propyl-amino)-6-(3-methoxy-phenyl-amino)-9H-purine] | 132 to 133 °C
26 | COc1cc(Nc2nc(NCCCO)nc3c2ncn3C)cc(OC)c1OC [Example 30, 2-(3-hydroxy-propyl-amino)-6-(3,4,5-trimethoxy-phenyl-amino)-9-methyl-9H-purine] | 166 to 167 °C
27 | CCn1cnc2c(Nc3cccc(Cl)c3)nc(N[C@H]3CC[C@H](O)CC3)nc21 [Example 65, 6-(3-chloro-phenyl-amino)-9-ethyl-2-(trans-4-hydroxy-cyclohexyl-amino)-9H-purine] | 116.5 °C
28 | CCn1cnc2c(Nc3cccc(Cl)c3)nc(N3CCC[C@H]3CO)nc21 [Example 40, 6-(3-chloro-phenyl-amino)-9-ethyl-2-[(S)-2-hydroxymethyl-pyrrolidin-1-yl]-9H-purine] | 169 °C
29 | CCn1cnc2c(Nc3cccc(Cl)c3)nc(NCc3ccccc3)nc21 [Example 10, 2-benzylamino-6-(3-chloro-phenyl-amino)-9-ethyl-9H-purine] | 88 to 90 °C
30 | CCn1cnc2c(Nc3cccc(Cl)c3)nc(N(CCO)CCO)nc21 [Example 2, 6-(3-chloro-phenylamino)-2-(di-[2-hydroxy-ethyl]-amino)-9-ethyl-9H-purine] | 148 to 149 °C
31 | CCn1cnc2c(Nc3cccc(Cl)c3)nc(N(C)C(N)=O)nc21 [Example 53, 2-[carbamoyl-methyl-amino]-6-(3-chloro-phenyl-amino)-9-ethyl-9H-purine] | > 220 °C
32 | CCn1cnc2c(Nc3cccc(Cl)c3)nc(Nc3cccc(N)c3)nc21 [Example 42, 2-[3-amino-phenylamino]-6-(3-chloro-phenyl-amino)-9-ethyl-9H-purine] | 205 °C
33 | CCn1cnc2c(Nc3cccc(Cl)c3)nc(NCC3CCCO3)nc21 (stereo not shown) [Example 15, 2-(tetrahydrofurfuryl-amino)-6-(3-chloro-phenyl-amino)-9-ethyl-9H-purine] | 84 to 86 °C
34 | CCn1cnc2c(Nc3cccc(Cl)c3)nc(NCC(C)N)nc21 (stereo not shown) [Example 47, 2-(2-amino-propyl-amino)-6-(3-chloro-phenyl-amino)-9-ethyl-9H-purine] | 119 to 120 °C
35 | CCn1cnc2c(Nc3cccc(Cl)c3)nc(NCCc3ccccn3)nc21 [Example 16, 2-[2-(2-pyridyl)-ethyl-amino]-6-(3-chloro-phenyl-amino)-9-ethyl-9H-purine] | 152 to 153 °C
36 | CCn1cnc2c(Nc3cccc(C(=O)NCCCO)c3C)nc(NCCCO)nc21 [Example 25, 9-ethyl-2-(3-hydroxy-propyl-amino)-6-[3-[(3-hydroxy-propyl)-aminocarbonyl]-2-methyl-phenyl-amino]-9H-purine] | 138 to 142 °C
37 | CCn1cnc2c(Nc3cccc(C(F)(F)F)c3)nc(NCCCO)nc21 [Example 24, 9-Ethyl-2-(3-hydroxy-propyl-amino)-6-(3-trifluoromethyl-phenyl-amino)-9H-purine] | 136 °C and 136 to 137 °C
38 | CCn1cnc2c(Nc3cccc(Cl)c3)nc(NCCc3c[nH]c4ccccc34)nc21 [Example 20, 2-[2-(3-indolyl)-ethyl-amino]-6-(3-chloro-phenyl-amino)-9-ethyl-9H-purine] | 106 to 108 °C
39 | CCn1cnc2c(Nc3cccc(Cl)c3)nc(N3CCNCC3)nc21 [Example 23, 6-(3-chloro-phenylamino)-9-ethyl-2-piperazino-9H-purine] | 181.5 to 182.5 °C
40 | COc1cccc(Nc2nc(NN)nc3c2ncn3C(C)C)c1.Cl | 250 °C
41 | CCn1cnc2c(Nc3cccc(Cl)c3)nc(NCCc3ccccc3)nc21 [Example 11, 2-(2-phenyl-ethyl-amino)-6-(3-chloro-phenyl-amino)-9-ethyl-9H-purine] | 151 to 152 °C
42 | CCn1cnc2c(Nc3cccc(C#N)c3)nc(NCCN)nc21.Cl | 200 °C
43 | CC(C)n1cnc2c(Nc3ccc(F)cc3)nc(NCCN)nc21.Cl | > 250 °C
44 | CCn1cnc2c(Nc3cccc(Cl)c3)nc(N3CCC(CCN)CC3)nc21 [Example 18, 2-[4-(2-amino-ethyl)-piperidin-1-yl]-6-(3-chloro-phenyl-amino)-9-ethyl-9H-purine] | 182 to 184 °C
45 | CCn1cnc2c(Nc3ccc(F)cc3)nc(NCCN)nc21.Cl | > 250 °C
46 | CCn1cnc2c(Nc3cccc(Cl)c3)nc(N(CCO)C3CCCCC3)nc21 [Example 62, 6-(3-chloro-phenyl-amino)-2-[N-cyclohexyl-N-(2-hydroxy-ethyl)-amino]-9-ethyl-9H-purine] | 125 to 128 °C
